Source: patent publication US10428082B2, “Triazole derivatives of melampomagnolide B and methods of use thereof” (BioVentures, LLC, priority 2016, dated 2019)
Read-outs that look alike come from different tables or passages of the source.

Legend:
M9 ENL1 cell line = assay: Anti-leukemic activity, Annexin V/7-AAD flow cytometry; format: cell-based; details: 24 h of drug exposure, read-out: M9ENL1 (EC50)
Description: The newly synthesized triazole derivatives of melampomagnolide B were screened for anti-leukemic activity against M9 ENL1 and primary AML cell lines; the latter were obtained with informed consent from human patients. Evaluations were performed after 24 h of drug exposure using flow cytometric analysis by labeling with Annexin V and 7-aminoactinomycin D (7-AAD) to delineate apoptotic cell populations. In all experiments PTL was included as a reference control.

[1] = tested on: NCI panel of 60 human cancer cell lines; assay: NCI 60 growth inhibition, ranges over groups of cell lines; format: cell-based; details: read-out: GI50
Description: The above triazole derivatives of melampomagnolide B were evaluated for growth inhibitory properties against an NCI panel of 60 human cancer cell lines derived from nine human cancer cell types, grouped into disease sub-panels that represent leukemia, lung, colon, central nervous system (CNS), melanoma, renal, ovary, breast, and prostate cancer cells. Growth inhibitory (GI50) effects were measured as a function of the variation of optical density as a percentage of control.

SK-OV-3 = assay: NCI 60 growth inhibition; format: cell-based, human; details: SK-OV-3, Ovarian Cancer
U251 = assay: NCI 60 growth inhibition; format: cell-based, human; details: U251, CNS Cancer
SK-MEL-28 = assay: NCI 60 growth inhibition; format: cell-based, human; details: SK-MEL-28, Melanoma
NCI-H522 = assay: NCI 60 growth inhibition; format: cell-based, human; details: NCI-H522, Non-Small Cell Lung Cancer
HT29 = assay: NCI 60 growth inhibition; format: cell-based, human
EKVX = assay: NCI 60 growth inhibition; format: cell-based, human; details: Non-Small Cell Lung Cancer
DU-145 = assay: NCI 60 growth inhibition; format: cell-based, human; details: DU-145, Prostate Cancer
PC-3 = assay: NCI 60 growth inhibition; format: cell-based, human; details: PC-3, Prostate Cancer
786-0 = assay: NCI 60 growth inhibition; format: cell-based, human; details: 786-0, Renal Cancer
UACC-62 = assay: NCI 60 growth inhibition; format: cell-based, human; details: UACC-62, Melanoma, Table 2
UACC-257 = assay: NCI 60 growth inhibition; format: cell-based, human; details: UACC-257, Melanoma, Table 2
SNB-19 = assay: NCI 60 growth inhibition; format: cell-based, human; details: SNB-19, CNS Cancer
NCI-H322M = assay: NCI 60 growth inhibition; format: cell-based, human; details: Non-Small Cell Lung Cancer
LOX IMVI = assay: NCI 60 growth inhibition; format: cell-based, human; details: Melanoma
NCI/ADR-RES = assay: NCI 60 growth inhibition; format: cell-based, human; details: Ovarian Cancer
MDA-MB-468 = assay: NCI 60 growth inhibition; format: cell-based, human; details: MDA-MB-468, Breast Cancer
HS 578T = assay: NCI 60 growth inhibition; format: cell-based, human; details: Breast Cancer
HCT-15 = assay: NCI 60 growth inhibition; format: cell-based, human; details: HCT-15, Colon Cancer
IGROV1 = assay: NCI 60 growth inhibition; format: cell-based, human; details: IGROV1, Ovarian Cancer
HCC-2998 = assay: NCI 60 growth inhibition; format: cell-based, human; details: HCC-2998, Colon Cancer
[2] = Homo sapiens, HT-29, Colon Cancer, Table 2

## C=C1C(=O)O[C@H]2[C@H]1CC/C(Cn1cc(-c3ccccc3)nn1)=C\CC[C@@]1(C)O[C@@H]21 [JVM 3-74, (1aR,7aS,10aS,10bS,E)-1a-Methyl-8-methylene-5-((4-phenyl-1H-1,2,3-triazol-1-yl)methyl)-2,3,6,7,7a,8,10a,10b-octahydrooxireno[2′,3′:9,10]cyclodeca[1,2-b]furan-9(1aH)-one]
M9 ENL1 cell line; M9-ENL1, 24 h
  EC50: 1900 nM
[1]; 60 cell, several cell lines in the NCI 60 cell panel
  GI50: 200 to 990 nM
SK-OV-3; Homo sapiens, Table 2
  GI50: 9950 nM
U251; Homo sapiens, U-251, Table 2
  GI50: 7960 nM
SK-MEL-28; Homo sapiens, Table 2
  GI50: 1060 nM
NCI-H522; Homo sapiens, Table 2
  GI50: 810 nM
HT29; [2]
  GI50: 1790 nM
EKVX; Homo sapiens, Table 2
  GI50: 6870 nM
DU-145; Homo sapiens, Table 2
  GI50: 2190 nM
PC-3; Homo sapiens, Table 2
  GI50: 5650 nM
786-0; Homo sapiens, Table 2
  GI50: 2630 nM
UACC-62; Homo sapiens
  GI50: 1870 nM
UACC-257; Homo sapiens
  GI50: 3780 nM
SNB-19; Homo sapiens, Table 2
  GI50: 7870 nM
NCI-H322M; Homo sapiens, Table 2
  GI50: 7790 nM
LOX IMVI; Homo sapiens, Table 2
  GI50: 800 nM
NCI/ADR-RES; Homo sapiens, Table 2
  GI50: 6170 nM
MDA-MB-468; Homo sapiens, Table 2
  GI50: 950 nM
HS 578T; Homo sapiens, Table 2
  GI50: 9780 nM
HCT-15; Homo sapiens, Table 2
  GI50: 770 nM
IGROV1; Homo sapiens, IGROV-1, Table 2
  GI50: 6950 nM
HCC-2998; Homo sapiens, Table 2
  GI50: 6160 nM

## C=C1C(=O)O[C@H]2[C@H]1CC/C(Cn1cc(CCC)nn1)=C\CC[C@@]1(C)O[C@@H]21 [JVM 4-16, (1aR,7aS,10aS,10bS,E)-1a-Methyl-8-methylene-5((4-propyl-1H-1,2,3-triazol-1-yl)methyl)-2,3,6,7,7a,8,10a,10b-octahydrooxireno[2′,3′:9,10]cyclodeca[1,2-b]furan-9(1aH)-one]
M9 ENL1 cell line; M9-ENL1, 24 h
  EC50: 5500 nM
[1]; several cell lines in the panel
  GI50: < 5000 nM
SK-OV-3; Homo sapiens, Table 2
  GI50: 26000 nM
U251; Homo sapiens, U-251, Table 2
  GI50: 14100 nM
NCI-H522; Homo sapiens, Table 2
  GI50: 3060 nM
HT29; [2]
  GI50: 5500 nM
EKVX; Homo sapiens, Table 2
  GI50: 11500 nM
DU-145; Homo sapiens, Table 2
  GI50: 4320 nM
PC-3; Homo sapiens, Table 2
  GI50: 14900 nM
786-0; Homo sapiens, Table 2
  GI50: 11300 nM
SNB-19; Homo sapiens, Table 2
  GI50: 18800 nM
NCI-H322M; Homo sapiens, Table 2
  GI50: 21500 nM
LOX IMVI; Homo sapiens, Table 2
  GI50: 3910 nM
NCI/ADR-RES; Homo sapiens, Table 2
  GI50: 15200 nM
MDA-MB-468; Homo sapiens, Table 2
  GI50: 3650 nM
HS 578T; Homo sapiens, Table 2
  GI50: 23400 nM
HCT-15; Homo sapiens, Table 2
  GI50: 2900 nM
IGROV1; Homo sapiens, IGROV-1, Table 2
  GI50: 4630 nM
HCC-2998; Homo sapiens, Table 2
  GI50: 15100 nM

## C=C1C(=O)O[C@H]2[C@H]1CC/C(Cn1cc(-c3cc(C)c(C)cc3C)nn1)=C\CC[C@@]1(C)O[C@@H]21 [JVM 4-50]
M9 ENL1 cell line
  EC50: 9800 nM
SK-OV-3; Table 2
  GI50: 11700 nM
U251; Table 2
  GI50: 1530 nM
SK-MEL-28; Table 2
  GI50: 1400 nM
NCI-H522; Table 2
  GI50: 280 nM
HT29; HT-29, Colon Cancer, Table 2
  GI50: 500 nM
EKVX; Table 2
  GI50: 1220 nM
DU-145; Table 2
  GI50: 1350 nM
PC-3; Table 2
  GI50: 1470 nM
786-0; Table 2
  GI50: 1500 nM
UACC-62
  GI50: 1130 nM
UACC-257
  GI50: 1290 nM
SNB-19; Table 2
  GI50: 3900 nM
NCI-H322M; Table 2
  GI50: 11100 nM
LOX IMVI; Table 2
  GI50: 720 nM
NCI/ADR-RES; Table 2
  GI50: 2510 nM
MDA-MB-468; Table 2
  GI50: 530 nM
HS 578T; Table 2
  GI50: 1940 nM
HCT-15; Table 2
  GI50: 200 nM
IGROV1; Table 2
  GI50: 1290 nM
HCC-2998; Table 2
  GI50: 1720 nM

## C=C1C(=O)O[C@H]2[C@H]1CC/C(Cn1cc(-c3ccsc3)nn1)=C\CC[C@@]1(C)O[C@@H]21 [JVM 4-53]
M9 ENL1 cell line
  EC50: 2700 nM
SK-OV-3; Table 3
  GI50: 17400 nM
U251; Table 3
  GI50: 2500 nM
SK-MEL-28; Table 3
  GI50: 1810 nM
NCI-H522; Table 3
  GI50: 1390 nM
HT29; HT29, Colon Cancer, Table 3
  GI50: 1660 nM
EKVX; Table 3
  GI50: 2330 nM
DU-145; Table 3
  GI50: 1430 nM
PC-3; Table 3
  GI50: 4210 nM
786-0; Table 3
  GI50: 1760 nM
SNB-19; Table 3
  GI50: 9490 nM
NCI-H322M; Table 3
  GI50: 10500 nM
LOX IMVI; Table 3
  GI50: 1280 nM
NCI/ADR-RES; Table 3
  GI50: 3790 nM
MDA-MB-468; Table 3
  GI50: 1280 nM
HS 578T; Table 3
  GI50: 2820 nM
HCT-15; Table 3
  GI50: 1110 nM
IGROV1; Table 3
  GI50: 1920 nM
HCC-2998; Table 3
  GI50: 1840 nM

## C=C1C(=O)O[C@H]2[C@H]1CC/C(Cn1cc(-c3ccc(N)cc3)nn1)=C\CC[C@@]1(C)O[C@@H]21 [JVM 4-58]
M9 ENL1 cell line
  EC50: 2000 nM
SK-OV-3; Table 3
  GI50: 18300 nM
U251; Table 3
  GI50: 4160 nM
SK-MEL-28; Table 3
  GI50: 2710 nM
NCI-H522; Table 3
  GI50: 1370 nM
HT29; HT29, Colon Cancer, Table 3
  GI50: 2140 nM
EKVX; Table 3
  GI50: 3890 nM
DU-145; Table 3
  GI50: 3650 nM
PC-3; Table 3
  GI50: 10100 nM
786-0; Table 3
  GI50: 1980 nM
SNB-19; Table 3
  GI50: 12700 nM
NCI-H322M; Table 3
  GI50: 12600 nM
LOX IMVI; Table 3
  GI50: 1510 nM
NCI/ADR-RES; Table 3
  GI50: 14500 nM
MDA-MB-468; Table 3
  GI50: 1770 nM
HS 578T; Table 3
  GI50: 4460 nM
HCT-15; Table 3
  GI50: 1420 nM
IGROV1; Table 3
  GI50: 2960 nM
HCC-2998; Table 3
  GI50: 3490 nM

## C=C1C(=O)O[C@H]2[C@H]1CC/C(Cn1cc(-c3ccccc3C(F)(F)F)nn1)=C\CC[C@@]1(C)O[C@@H]21 [JVM 4-59]
M9 ENL1 cell line
  EC50: 3900 nM
SK-OV-3; Table 3
  GI50: 17300 nM
U251; Table 3
  GI50: 1830 nM
SK-MEL-28; Table 3
  GI50: 1750 nM
NCI-H522; Table 3
  GI50: 1380 nM
HT29; HT29, Colon Cancer, Table 3
  GI50: 1790 nM
EKVX; Table 3
  GI50: 2320 nM
DU-145; Table 3
  GI50: 1420 nM
PC-3; Table 3
  GI50: 4320 nM
786-0; Table 3
  GI50: 1840 nM
SNB-19; Table 3
  GI50: 10800 nM
NCI-H322M; Table 3
  GI50: 10800 nM
LOX IMVI; Table 3
  GI50: 1110 nM
NCI/ADR-RES; Table 3
  GI50: 2990 nM
MDA-MB-468; Table 3
  GI50: 1140 nM
HS 578T; Table 3
  GI50: 3570 nM
HCT-15; Table 3
  GI50: 1050 nM
IGROV1; Table 3
  GI50: 1810 nM
HCC-2998; Table 3
  GI50: 1850 nM
